This is an account of results in patent publication US20210236580A1, “Methods and Compositions for Mitigating Symptoms of Acute Respiratory Distress Syndrome” (Sytheon Ltd, priority 2020, published 2021).

The test system of assay [1] is IL-6. The experiment in a line: IL-6 secretion in LPS-induced human bronchial epithelial cells (HBEpC), ELISA. The format is cell-based. To be noted: 48 hrs, 20 μM. The source says:
(§1) HBEpC provide an excellent model for all aspects of respiratory epithelial function and diseases, particularly those related to airway viral/bacterial infections, including tissue repair mechanisms, signaling changes and potential treatments relevant to lung injuries, mechanical and oxidative stress, inflammation, etc., including that arising from or associated with pulmonary diseases and smoking. In this study, the inflammatory cytokines IL-6 and IL-8 were induced through pretreatment of the HBEpC with lipopolysaccharide (Cat #L2630, Sigma, Saint Louis, Mo.). After 3 hours of treatment the test and control materials were added to the cultures which were then incubated at […] for 48 hrs. Thereafter the IL-8 and IL-6 levels of the test cultures were measured by ELISA.
(§2) Each experimental condition and control were assayed at least in six replicates and statistical significance assessed with paired Student test. In conducting the assay, total insoluble proteins were quantified to determine the effect of the test materials on cell proliferation according to the method described by Voigt (Voigt, W. Sulforhodamine B assay and chemosensitivity. Methods Mol Med. 2005; 110:39-48).

For assay [2], the system named is IL-8. In words: IL-8 release by urban dust-stimulated human keratinocytes (ELISA). The format is cell-based. To be noted: keratinocytes + 100 ug/ml urban dust, 24 hours; 100 μM (39 μg/ml). The method, then:
(§3) Human Keratinocyte Cell Culture: Human adult epidermal keratinocytes were grown using EpiLife Media (60 μM calcium) supplemented with 0.2% v/v bovine pituitary extract, 1 μg/ml recombinant human insulin-like growth factor-I, 0.18 µg/ml hydrocortisone, 5 μg/ml bovine transferrin, 0.2 ng/ml human epidermal growth factor. The cells were cultured at 37 C and 5% CO2. When a sufficient number of cells had been grown, they were seeded into 24-well plates and grown until confluent. Once confluent the cells were cultured overnight in hydrocortisone free EpiLife Media.
(§4) Preparation of Urban Dust & treatment: Urban dust was obtained from Sigma Chemicals (Standard Reference Material 1649b) and prepared at 10 mg/ml in hydrocortisone free EpiLife media. The urban dust solution was then sonicated for 10 minutes on ice. The test material was prepared in hydrocortisone free media supplemented with 100 ug/ml urban dust. […] Finally, one set of cells was not exposed to urban dust and was used to establish a baseline for each cytokine. […]
(§5) A series of standards was prepared and 100 μl of each of these standards was dispensed into two wells (duplicates) in the ELISA well plate. […] Once a sufficient level of color development had occurred, 50 μl of stop solution […]) was added to each well and the plate was read at 460 nm.
Background: ELISA stands for enzyme-linked immunosorbent assay.

Assay [3] deals with IL-6. The experiment in a line: IL-6 release by urban dust-stimulated human keratinocytes (ELISA). The assay is classed as cell-based. To be noted: keratinocytes + 100 ug/ml urban dust, 24 hours; 100 μM (39 μg/ml). On the procedure: as §3, §4, §5
The subject of another assay is interferon gamma. In words: IFN-γ in medium of LPS-exposed 3D ciliated airway tissues, sandwich ELISA. The format is cell-based, human. Conditions: second value column of Table 6, 100 μg/ml.
For another assay, the system named is interferon alpha. In words: IFN-α in medium of LPS-exposed 3D ciliated airway tissues, sandwich ELISA. The assay is classed as cell-based, human. Conditions: first value column of Table 6, 100 μg/ml.
In assay [4] the test system is IL-8. The experiment in a line: IL-8 secretion in LPS-induced human bronchial epithelial cells (HBEpC), ELISA. The format is cell-based. Conditions: 48 hrs.
Source text: as §1, §2

The subject of assay [5] is IL-6. In words: IL-6 in LPS-exposed 3D ciliated airway tissue, sandwich ELISA. The assay is classed as cell-based, human. To be noted: 1 μg/ml LPS, 48 hours, 100 μg/ml.
Method: Further dilutions were made in sterile distilled water (dH2O). […] After three hours of incubation with test materials, cells were exposed to endotoxin—1 μg/ml LPS (lipopolysaccharides from Escherichia coli O113:H10, Associates of Cape Cod, East Falmouth, Mass.) and the incubation continued for an additional 48 hours.
The tissue cultures were then evaluated for IL-6 which was quantified by Sandwich Elisa. All colorimetric measurements were performed using Molecular Devices microplate reader MAX190 and SoftMax3.1.2PRO software. Statistical significance was assessed with paired Student test. Deviations of ≥20% as compared to water control with p values below 0.05 were considered statistically significant.
The target of another assay is T1, IL-6R (Homo sapiens, UniProt P08887).
T1 construct: host or cells: endogenous receptor in Covid-19 patients (in vivo)
T1 sequence (P08887 20-468): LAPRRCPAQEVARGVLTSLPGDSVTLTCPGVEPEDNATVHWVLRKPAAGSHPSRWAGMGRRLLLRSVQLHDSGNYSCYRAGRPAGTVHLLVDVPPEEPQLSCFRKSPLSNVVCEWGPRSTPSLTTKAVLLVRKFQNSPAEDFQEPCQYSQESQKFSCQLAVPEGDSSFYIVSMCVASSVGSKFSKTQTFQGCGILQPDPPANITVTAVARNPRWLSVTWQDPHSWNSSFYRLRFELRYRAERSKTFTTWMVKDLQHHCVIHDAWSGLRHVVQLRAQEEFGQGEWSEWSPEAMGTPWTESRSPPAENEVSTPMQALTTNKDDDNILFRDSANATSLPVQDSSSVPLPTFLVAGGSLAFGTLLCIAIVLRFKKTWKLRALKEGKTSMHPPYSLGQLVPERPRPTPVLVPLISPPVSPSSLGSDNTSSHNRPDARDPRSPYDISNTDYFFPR
To be noted: Covid-19 patients, after treatment; preliminary findings; cited from earlier work.

Method for interferon alpha: (§6) The respective test materials were stored at room temperature and samples were solubilized in sterile water (LPS, TC, EMB) or DMSO (DEX) at 20 mg/ml, afterward all further dilutions were made in sterile distilled water. All test materials except LPS were assayed at 100 μg ml (LPS was added topically at 1 μg/ml on Day 2). Furthermore, TC and EMB were tested at 50 μg/ml and in two combinations: 50 μg/ml:50 μg/ml and 25 μg/ml:25 μg/ml. Samples were added to the feeder chamber medium contacting the basal side of the tissues on Day 1, then also topically on Day 2, together with LPS. All experimental conditions were tested in triplicates.
(§7) Twenty-four hours after pre-incubation with the test substances, the tissue cultures were exposed to 1 μg/ml endotoxin LPS and the incubation was continued for 48 additional hours. Following the incubation, the experiment tissue culture-conditioned medium was stored at −20° C. until further processing. Subsequently, IFN-α and IFN-γ were quantified in the tissue culture-conditioned medium by sandwich ELISA.
Method for interferon gamma: as §6, §7

`C[C@@H]1C[C@H]2[C@@H]3CCC4=CC(=O)C=C[C@]4(C)[C@@]3(F)[C@@H](O)C[C@]2(C)[C@@]1(O)C(=O)CO` [Dexamethasone]: the “IL-6 (% control)” value stood at 77 % control in the assay on IL-6 [1] and 123 % control in the assay on IL-6 [5]. In addition, in the assay with IL-8 [2], the “IL-8” value amounted to 86.9 ± 24.5 pg/mL. Further, in the assay on IL-6 [3], the “IL-6” value turned out to be 61.0 ± 13.9 pg/mL. The entries for the “Interferon alpha” value in the assay with interferon gamma and with interferon alpha were 20 pg/mL and 6 pg/mL, respectively. Further, the “IL-8 (% control)” value in the assay on IL-8 [4] (20 μM) amounted to 98 % control; with IL-8 [4] (40 μM) it was 91 % control.

In the case of “Actemra: humanized anti-IL-6R monoclonal antibody”, in the assay with IL-6R, the effect on fevers result was “rapidly reduced fevers” and the “patients experiencing a reduced need for supplemental oxygen” value is listed as 75%.
